The source of these data is patent publication US20170121344A1 (Siga Technologies, Inc., priority 2009, published 2017).

Like-named read-outs stand apart in the source and are kept apart here. Bounds are passed on as bounds.

The assay relates to Dengue-2 (Strain New Guinea C). Nature of the assay: Viral yield assay against Dengue-2 in Vero cells. The class given is cell-based, Dengue virus. The note with it: Dengue virus. The method, boiled down:
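Vero cells were infected with dengue-2 at MOI 0.1, treated with compound (DMSO control), and kept at 37° C. They were harvested 48 hours post infection and yield was titered on Vero cells. EC50 came from the yield curve, and the other serotypes were run in a similar way.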

Where [1] appears, read: DENV2, viral yield assay, Vero cells, MOI 0.1, 48 hours post infection, read-out: Activity (EC50 in μM) DENV-2.
Setting [2] is: Vero, 48 h, read-out: Activity (EC50 class) against Dengue-2 Virus in Vero cells.
[3] abbreviates: Vero cells, MOI 0.1, harvested 48 hours post infection, read-out: Activity (EC50 class) against Dengue-2 Virus in Vero cells.
[4] abbreviates: DENV2, Vero, 48 h, read-out: Activity (EC50 in μM) DENV-2.

Take `Cc1cc(C)c2c(C)c(C(=O)NCC(C)C)sc2n1` [Compound 395, N-isobutyl-3,4,6-trimethyl-thieno[2,3-b] pyridine-2-carboxamide]: the concentration giving a half-maximal response (EC50) (as a rule, the concentration at which the effect is half-maximal) under setting [1] was in the range of 5 to 25 µM. On to `CN1CCc2nc3sc(C(=O)NC4CC4)c(N)c3cc2C1` [Compound 105, 3-Amino-6-methyl-5,6,7,8-tetrahydro-thieno[2,3-b][1,6]naphthyridine-2-carboxylic acid cyclopropylamide], for which the EC50 under setting [2] lay in the range of 5 to 25 µM. For `CN1CCc2nc3sc(C(=O)Nc4cccc(C(F)(F)F)c4)c(N)c3cc2C1` [Compound 280, 3-Amino-6-methyl-5,6,7,8-tetrahydro-thieno[2,3-b][1,6]naphthyridine-2-carboxylic acid (3-trifluoromethyl-phenyl)-amide], the EC50 under setting [3] was above 25 µM. Still for that read-out and setting: as for `CC(=O)N1CCc2nc3sc(C(=O)Nc4ccc(C(C)(C)C)cc4)c(N)c3c(C(F)(F)F)c2C1` [Compound 56, 6-Acetyl-3-amino-4-trifluoromethyl-5,6,7,8-tetrahydro-thieno[2,3-b][1,6]naphthyridine-2-carboxylic acid (4-tert-butyl-phenyl)-amide], the figure is below 5 µM. The same measure, in the same setting: as for `COc1ccc(-c2cc(-c3ccccc3)nc3sc(C(N)=O)c(N)c23)cc1` [Compound 125, 3-Amino-4-(4-methoxy-phenyl)-6-phenyl-thieno[2,3-b]pyridine-2-carboxylic acid amide], the figure is above 25 µM. On to `Cc1ccc(NC(=O)c2sc3nc4c(cc3c2N)CCCCC4)cc1` [Compound 175, 3-Amino-6,7,8,9-tetrahydro-5H-1-thia-10-aza-cyclohepta[f]indene-2-carboxylic acid p-tolylamide], for which the EC50 under setting [3] was above 25 µM.

Take `COc1cccc(-c2ccc3c(N)c(C(=O)Nc4ccc(Br)cc4F)sc3n2)c1` [Compound 556, 3-amino-N-(4-bromo-2-fluoro-phenyl)-6-(3-methoxyphenyl)thieno[2,3-b]pyridine-2-carboxamide]: the EC50 under setting [1] was below 5 µM. Same read-out and setting: with `COc1cccc(-c2ccc3c(N)c(C(=O)Nc4cc(Cl)cc(Cl)c4)sc3n2)c1` [Compound 564, 3-amino-N-(3,5-dichlorophenyl)-6-(3-methoxyphenyl)thieno[2,3-b]pyridine-2-carboxamide] the figure was below 5 µM.

Regarding `Nc1c(C(=O)NCCc2ccccc2)sc2nc3c(cc12)CCCCC3` [Compound 205, 3-Amino-6,7,8,9-tetrahydro-5H-1-thia-10-aza-cyclohepta[f]indene-2-carboxylic acid phenethyl-amide], under setting [3], the EC50 is above 25 µM. For `Cc1ccccc1NC(=O)c1sc2nc3c(c(-c4ccco4)c2c1N)CCCC3` [Compound 218, 3-Amino-4-furan-2-yl-5,6,7,8-tetrahydro-thieno[2,3-b]quinoline-2-carboxylic acid o-tolylamide], the EC50 under setting [2] was above 25 µM. `Cc1cc(NC(=O)c2sc3nc(-c4ccc5c(c4)OCO5)ccc3c2N)ccc1Br` [Compound 590, 3-amino-6-(1,3-benzodioxol-5-yl)-N-(4-bromo-3-methyl-phenyl)thieno[2,3-b] pyridine-2-carboxamide]: the EC50 under setting [1] was below 5 µM. Regarding `Cc1ccc(NC(=O)c2sc3nc4c(cc3c2N)CN(C)CC4)c(C)c1` [Compound 17, 3-Amino-6-methyl-5,6,7,8-tetrahydro-thieno[2,3-b][1,6]naphthyridine-2-carboxylic acid (2,4-dimethyl-phenyl)-amide], under setting [3], the EC50 is below 5 µM. Consider `COc1cccc(-c2ccc3c(N)c(C(=O)Nc4cccc(C)c4C)sc3n2)c1` [Compound 562, 3-amino-N-(2,3-dimethylphenyl)-6-(3-methoxyphenyl)thieno[2,3-b]pyridine-2-carboxamide], for which the EC50 under setting [1] is below 5 µM.

For `Cc1ccc(-c2c3c(nc4sc(C(N)=O)c(N)c24)CCCCC3)cc1` [Compound 220, 3-Amino-4-p-tolyl-6,7,8,9-tetrahydro-5H-1-thia-10-aza-cyclohepta[f]indene-2-carboxylic acid amide], under setting [3], the EC50 is above 25 µM.

On to `Nc1c(C(=O)Nc2ccc(Cl)cc2)sc2nc(-c3ccc4c(c3)OCO4)ccc12` [Compound 601, 3-amino-6-(1,3-benzodioxol-5-yl)-N-(4-chlorophenyl)thieno[2,3-b]pyridine-2-carboxamide], for which the EC50 under setting [1] was below 5 µM. On to `CCOC(=O)c1ccc(NC(=O)c2sc3nc4c(cc3c2N)CN(C(C)C)CC4)cc1` [Compound 25, 4-[(3-Amino-6-isopropyl-5,6,7,8-tetrahydro-thieno[2,3-b][1,6]naphthyridine-2-carbonyl)-amino]-benzoic acid ethyl ester], for which the EC50 under setting [3] was below 5 µM. For `COc1cccc(-c2ccc3c(N)c(C(=O)Nc4ccc(C(C)=O)cc4)sc3n2)c1` [Compound 513, N-(4-acetylphenyl)-3-amino-6-(3-methoxyphenyl)thieno[2,3-b]pyridine-2-carboxamide], under setting [4], the EC50 was below 5 µM. As for `COCc1cc(C)nc2sc(C(=O)Nc3ccc(C)c(Cl)c3)c(N)c12` [Compound 229, 3-Amino-4-methoxymethyl-6-methyl-thieno[2,3-b]pyridine-2-carboxylic acid (3-chloro-4-methyl-phenyl)-amide], under setting [3], the EC50 was above 25 µM.

For `Nc1c(C(=O)Nc2ccc(S(N)(=O)=O)cc2)sc2nc3c(cc12)CCCCC3` [Compound 80, 3-Amino-6,7,8,9-tetrahydro-5H-1-thia-10-aza-cyclohepta[f]indene-2-carboxylic acid (4-sulfamoyl-phenyl)-amide], under setting [2], the EC50 lay in the range of 5 to 25 µM. On to `CN1CCc2nc3sc(C(=O)NCc4ccccc4Cl)c(N)c3cc2C1` [Compound 113, 3-Amino-6-methyl-5,6,7,8-tetrahydro-thieno[2,3-b][1,6]naphthyridine-2-carboxylic acid 2-chloro-benzylamide], for which the EC50 under setting [3] lay within 5 to 25 µM. Same read-out and setting: with `CCc1nnc(NC(=O)c2sc3nc(C)cc(COC)c3c2N)s1` [Compound 137, 3-Amino-4-methoxymethyl-6-methyl-thieno[2,3-b]pyridine-2-carboxylic acid (5-ethyl-[1,3,4]thiadiazol-2-yl)-amide] the figure was above 25 µM; with `CN1CCc2nc3sc(C(=O)Nc4ccc(F)c(Cl)c4)c(N)c3cc2C1` [Compound 110, 3-Amino-6-methyl-5,6,7,8-tetrahydro-thieno[2,3-b][1,6]naphthyridine-2-carboxylic acid (3-chloro-4-fluoro-phenyl)-amide], 5 to 25 µM; with `NC(=O)c1sc2nc(-c3cccs3)cc(-c3ccc(F)cc3)c2c1N` [Compound 2, 3-Amino-4-(4-fluoro-phenyl)-6-thiophen-2-yl-thieno[2,3-b]pyridine-2-carboxylic acid amide], below 5 µM. Turning to `Nc1c(C(=O)N(CCC(=O)O)c2ccc(Cl)cc2)sc2nc(-c3ccc(Cl)cc3)ccc12` [Compound 355, 3-(N-[3-amino-6-(4-chloro-phenyl)thieno [2,3-b]pyridine-2-carbonyl]-4-chloro-anilino) propanoic acid], the EC50 under setting [1] is below 5 µM.

In the case of `COc1ccc(-c2ccc3c(N)c(C(=O)Nc4cccc(Cl)c4)sc3n2)cc1OC` [Compound 540, 3-amino-N-(3-chlorophenyl)-6-(3,4-dimethoxyphenyl)thieno[2,3-b]pyridine-2-carboxamide], the EC50 under setting [1] is below 5 µM.

As to `Nc1c(C(=O)Nc2ccc(Br)cc2)sc2ncccc12` [Compound 423, 3-amino-N-(4-bromophenyl)thieno[2,3-b] pyridine-2-carboxamide], the EC50 under setting [1] was below 5 µM. In the case of `Cc1ccccc1NC(=O)c1sc2nc(-c3cccs3)ccc2c1N` [Compound 477, 3-amino-N-(o-tolyl)-6-(2-thienyl)thieno [2,3-b]pyridine-2-carboxamide], under setting [4], the EC50 is below 5 µM.

In the case of `CCN(C(=O)c1sc2nc(C)cc(C(F)(F)F)c2c1C)c1ccccc1` [Compound 406], under setting [1], the EC50 was below 5 µM. Same read-out and setting: as for `CCOc1ccccc1NC(=O)c1sc2nc(-c3ccc(F)cc3)ccc2c1N` [Compound 606, 3-amino-N-(2-ethoxyphenyl)-6-(4-fluorophenyl)thieno[2,3-b]pyridine-2-carboxamide], the figure is below 5 µM. The same measure, in the same setting: with `COc1cccc(-c2ccc3c(N)c(C(=O)Nc4ccc(Br)cc4C)sc3n2)c1` [Compound 549, 3-amino-N-(4-bromo-2-methyl-phenyl)-6-(3-methoxyphenyl)thieno[2,3-b] pyridine-2-carboxamide] the figure was below 5 µM.

For the compound `COc1ccc(CNC(=O)c2sc3nc4c(cc3c2N)CN(C)CC4)cc1` [Compound 266, 3-Amino-6-methyl-5,6,7,8-tetrahydro-thieno[2,3-b][1,6]naphthyridine-2-carboxylic acid 4-methoxy-benzylamide], under setting [3], the EC50 was above 25 µM.

Turning to `CCCCNC(=O)c1sc2nc3c(cc2c1N)CCCCC3` [Compound 282, 3-amino-N-butyl-6,7,8,9-tetrahydro-5H-cyclohepta [b]thieno[3,2-e]pyridine-2-carboxamide], under setting [1], the concentration giving a half-maximal response (EC50) fell in the range of 5 to 25 µM.

Regarding `COc1ccc(NC(=O)c2sc3nc(-c4ccc(F)cc4)ccc3c2N)cc1OC` [Compound 619, 3-amino-N-(3,4-dimethoxyphenyl)-6-(4-fluorophenyl)thieno[2,3-b]pyridine-2-carboxamide], the EC50 under setting [4] is below 5 µM. As to `CN(C)c1ccnc2sc3c(=O)n(-c4ccccc4)cnc3c12` [Compound 159, 9-Dimethylamino-3-phenyl-3H-pyrido[3′,2′:4,5]thieno[3,2-d]pyrimidin-4-one], the EC50 under setting [2] is above 25 µM. As for `Nc1c(C(=O)Nc2cccc(C(F)(F)F)c2)sc2nc(-c3cccs3)ccc12` [Compound 3, 3-Amino-6-thiophen-2-yl-thieno[2,3-b]pyridine-2-carboxylic acid (3-trifluoromethyl-phenyl)-amide], the EC50 under setting [3] is below 5 µM.

Regarding `Cc1ccc(NC(=O)c2sc3nc(-c4ccc(Cl)cc4)ccc3c2N)cc1C` [Compound 348, 3-amino-6-(4-chlorophenyl)-N-(3,4-dimethyl-phenyl)thieno [2,3-b]pyridine-2-carboxamide], under setting [1], the EC50 was below 5 µM.
